In US5763483A, “Carbocyclic compounds” (priority 1996, dated 1998):

biological target: neuraminidase; experiment: Enzyme Inhibition (in vitro neuraminidase screen); format: biochemical
Description: Compositions of the invention are screened for inhibitory activity against neuraminidase by any of the conventional techniques for evaluating enzyme activity. Within the context of the invention, typically compositions are first screened for inhibition of neuraminidase in vitro and compositions showing inhibitory activity are then screened for activity in vivo. Compositions having in vitro Ki (inhibitory constants) of less then about 5×10^-6 M, typically less than about 1×10^-7 M and preferably less than about 5×10^-8 M are preferred for in vivo use.
Useful in vitro screens have been described in detail and will not be elaborated here. However, Itzstein, M. von et al.; "Nature", 363(6428):418-423 (1993), in particular page 420, column 2, full paragraph 3, to page 421, column 2, first partial paragraph, describes a suitable in vitro assay of Potier, M.; et al.; "Analyt. Biochem.", 94:287-296 (1979), as modified by Chong, A. K. J.; et al.; "Biochem. Biophys. Acta", 1077:65-71 (1991); and Colman, P. M.; et al.; International Publication No. WO 92/06691 (Int. App. No. PCT/AU90/00501, publication date Apr. 30, 1992) page 34, line 13, to page 35, line 16, describes another useful in vitro screen.
Enzyme Inhibition: Using the methods of screening in vitro activity described above, the following activities were observed (+10-100 μm, ++1-10 μm, +++<1.0 μm): […]

Structure (SMILES) | IC50
CC(=O)N[C@@H]1[C@@H](N)CC(C(=O)O)=C[C@H]1OCC(O)CO (stereo partly drawn) [Compound 8] | 1000 to 10000 nM
CC(=O)N[C@H]1[C@H](O)C=C(C(=O)O)C[C@@H]1NC(=N)N [Compound 94] | < 1000 nM
COCO[C@@H]1C=C(C(=O)O)C[C@H](N)[C@H]1NC(C)=O [Compound 114] | 1000 to 10000 nM
